Reference: US11980681B2, “Material for demineralizing dentin collagen fibril, preparation method and application thereof” (THE FOURTH MILITARY MEDICAL UNIVERSITY OF CHINESE PEOPLE'S …, priority 2019, dated 2024)

Columns and labels:
[1] = Rate of chelating Ca2+ from mineralized dentin, inductively coupled plasma-atomic emission spectrometry; settings: 0.1M EDTA vs EDTA cross-linked glycol chitosan at 50, 25 and 10 mg/ml
[2] = Transmission electron microscopy of mineralized dentin treated with demineralizing agents; settings: 0.1M EDTA for 60 seconds or 25 mg/ml glycol chitosan-EDTA for 30 seconds
Protocol: For wet bonding, the conditioned specimen was kept moist by removing excess water from the dentin surface with lint-free tissues prior to bonding. For dry bonding, the conditioned dentin was air-dried with […] moisture-free air for 5 sec. The dentin bond strength was measured by the following methods. After treatment with various demineralizing agents and rinsing with deionized water, each tooth segment was bonded with Adper Single Bond 2 (3M ESPE; St Paul, MN, USA). After bonding, a 4-mm thick of resin composite (Z250, 3M ESPE) was placed over the adhesive-coated dentin surface using incremental light-curing. The bonded teeth with composite build-ups were stored in water for 24 hours at 37° C. Each specimen was subsequently sectioned to 0.9 mm×0.9 mm×7 mm long sticks, each with the resin-dentin interface in the middle of the stick. Each stick was attached with cyanoacrylate glue (Zapit; Dental Ventures of America, Corona, CA, USA) to a testing jig and stressed to failure under tension in a universal testing machine (Vitrodyne V1000; Liveco Inc., Burlington, VT, USA) at a cross-head speed of 1 mm/min. The tensile load at failure was recorded and divided by the measured cross-sectioned area of each beam to yield the tensile bond strength. The mean bond strength value derived from the 4 beams of each tooth was used to represent the tensile bond strength of that particular tooth. […]

[3] = Degree of degradation of dentin collagen in dentin mixed layers; settings: ranking among 32% phosphoric acid, EDTA and GCE
Protocol: FIG. 4B compares degree of degradation of dentin collagen in each group of the dentin mixed layers.
In this experiment, the inhibitory effect of GCE on soluble MMP-9 was evaluated using purified recombinant human MMP-9 (rhMMP-9) and a generic MMP assay kit (Sensolyte, AnaSpec Inc., Fremont, CA, USA). The MMP assay kit contains an intact thiopeptolide that is cleaved by specific MMPs to release a sulfhydryl group that produces colored 2-nitro-5-thiobenzoic acid with Ellman's reagent. A series of EDTA and GCE solutions (50 mg/mL, 25 mg/mL, 10 mg/mL, 5 mg/mL, 1 mg/mL) were used as test agents and 32% H3PO4 was used for comparison. […] Readings were taken after 60 min of incubation at 37° C. Absorbance was measured at 412 nm using a 96-well plate reader (VICTOR Nivo™, PerkinElmer). Background absorbance was determined from the “substrate control” wells and subtracted from the readings of the other wells containing the thiopeptolide substrate. The potency of rhMMP-9 inhibition by GM6001, the kit-included MMP inhibitor, and the […] concentrations of EDTA or GCE were expressed as percentages of the adjusted absorbance of the “positive control”. Inhibition of MMP (%) was calculated as 1−([A]test compound group−[A]test compound control)/([A]positive control−[A]substrate control), where [A] represents the absorbance values of the wells. […]

[4] = tested on: human dental pulp stem cells (hDPSCs); assay: Cytotoxicity test: mitochondrial dehydrogenase activity and intracellular DNA content; assay type: cell-based; settings: hDPSCs exposed to 32% phosphoric acid, 0.1M EDTA or 25 mg/ml GCE; PBS control
From the text: FIG. 5A detects the mitochondrial dehydrogenase activity (Mito.) of human dental pulp stem cells (hDPSCs) that had been exposed to different dentin demineralizing agents.
FIG. 5B detects intracellular DNA content of human dental pulp stem cells that had been exposed to different dentin demineralizing agents.
FIG. 5A detects the mitochondrial dehydrogenase activity (Mito.) of human dental pulp stem cells (hDPSCs) that had been exposed to different dentin demineralizing agents. FIG. 5B detects intracellular DNA content of human dental pulp stem cells that had been exposed to different dentin demineralizing agents.

O=C(O)CN(CCN(CC(=O)O)CC(=O)O)CC(=O)O [EDTA, ethylenediaminetetraacetic acid]
demineralization effect (rate of chelating Ca2+) [1]: strongest demineralization effect | extent of dentin demineralization in TEM image [2]: complete demineralization in a part of area and partial demineralization in some areas | degradation rate of collagen [3]: followed by EDTA | cell viability [4]: followed by the EDTA group

O=P(O)(O)O [phosphoric acid]
degradation rate of collagen [3]: highest | cell viability [4]: lowest
